Measurements: US11850238B2, “Use of a thienopyridone derivative in the treatment of adrenoleukodystrophy or adrenomyeloneuropathy” (POXEL, priority 2020, dated 2023)

Key:
[1] = test system: AMN human patient-derived primary lymphocytes; assay: Hexacosanoic acid (VLCFA) level in AMN patient-derived lymphocytes, LC-MS; format: cell-based
Procedure: In order to show the efficacy of PXL770 to lower very long chain fatty acids (VLCFA) in vitro, the study focuses on the level assessment of the hexacosanoic acid, which is the most prevalent VLCFA, in healthy control cells and in AMN human patient-derived primary lymphocytes. The cell lines were obtained from Coriell Cell Repositories. Lymphocytes were cultured in RPMI-1640 with 10% fetal bovine serum (FBS). The cultures were split in 1:5 ratio. Lymphocytes from healthy patients were used as control. All treatments were in complete media containing fetal bovine serum (FBS, 15%). All cultured cells were maintained at 37° C. in 5% CO2.
VLCFA content was then measured as follows. Samples are adjusted to a final volume of 0.5-1 ml with LC-MS grade water and spiked with 10 ng of Lignoceric acid-d4 as an internal standard. The sample is acidified to pH 3-4 with dilute hydrochloric acid and extracted with isooctane-ethyl acetate (9:1) three times with equal volume. The extract is dried under nitrogen and the residue is reconstituted in methanol-water-ammonium acetate (75:25:10 mM).
Total fatty acids: After preparing the samples with internal standard as described above for free fatty acids, aqueous sodium hydroxide is added to a final concentration of 1 M. The mixture is incubated at 37° C. in dark under nitrogen for 3 h. […]
LC-MS analysis of fatty acids: The reconstituted fatty acid extracts are subjected to HPLC on Targa C8 column (2×10 mm) using methanol-aqueous ammonium acetate (10 mM) solvent mixture. […] The column eluent is directly introduced to mass analyzer (QTRAP5500) and monitored for fatty acids using published pseudo MRM method. […] Each fatty acid is quantitated against the added internal standard.
First, the evolution of hexacosanoic acid in lymphocytes is monitored in healthy control cells and in AMN human patient-derived primary lymphocytes; and in a second time a treatment of PXL770 was assigned to AMN human-derived primary lymphocytes in culture at different concentrations (5 μM, 10 μM, 25 μM, 50 μM) for one week and the level of hexacosanoic acid was measured. […]

[2] = test system: ALD-KO mouse-mixed glial cells; assay: Hexacosanoic acid (VLCFA) level in ALD-KO mouse mixed glial cells; format: cell-based; conditions: 25 μM, FIG. 3
Procedure: The inventors carried out a study of the measurement of VLCFA accumulation in AMN mouse-mixed glial cells when they are not undergoing any treatment and when they are treated with PXL770 at different doses.
C57BL6 mouse breeding pairs were purchased from Jackson Laboratory (Bar Harbor, ME) and maintained at the Henry Ford Health System (HFHS) animal facility. All animal procedures were approved by the HFHS Animal Review Committee and all animals received humane care in compliance with the HFHS experimental guidelines and the National Research Council's criteria for humane care (Guide for Care and Use of Laboratory Animals). Mouse with Abcd1 gene knocked-out were raised and used to extract mixed glial cells. Primary astrocyte-enriched cultures were prepared from the whole cortex of 1-day-old C57BL/6 mice. Briefly, the cortex was rapidly dissected in ice-cold calcium/magnesium-free HBSS at pH 7.4 as described previously. The tissue was minced, incubated in HBSS containing trypsin (2 mg/ml) for 20 min, and washed twice in plating medium containing 10% FBS and 10 μg/ml gentamicin and then disrupted by triturating through a Pasteur pipette, after which cells were seeded in 75-cm^2 culture flasks (Falcon, Franklin, NJ). […]
Hexacosanoic acid level in six groups of mixed glial cells was measured. […]

[3] = test system: ALD patient-derived lymphocytes; assay: Hexacosanoic acid (VLCFA) level in ALD patient-derived lymphocytes; format: cell-based, human
Procedure: After studies on cells from patients with the […] of ALD (AMN) the inventors replicated the same study method as in example 1 to analyze the effect of PXL770 on cells from X-ALD patients (severe inflammatory phenotype).
The experiments described in Examples 3 and 7 were performed with metformin by the same lab and described by Singh et al. in Journal of Neurochemistry, 2016; 138, 86-100.

ABCD2 = assay: Western blot of ABCD2 expression in ALD patient fibroblasts; format: cell-based, human; conditions: especially at low concentration (5 μM), FIG. 6
Procedure: The experiments described in Examples 4 and 6 were performed with metformin by the same lab and described by Singh et al. in Journal of Neurochemistry, 2016; 138, 86-100.

ABCD1-KO mice = assay: In vivo X-ALD mouse, 90 days: VLCFA (C26:0) in spinal cord; conditions: male ABCD1-KO mice, 75 mg/kg oral gavage twice a day, FIG. 13
Procedure: Male ABCD1-KO mice (n=8) were treated with oral gavage of PXL770 (75 mg/kg) twice a day, every day for 90 days. Untreated ABCD1-KO mice (n=8) and wild-type (WT) mice (n=8) served as controls. Post-treatment mice were sacrificed and spinal cord was collected for VLCFA analysis. The analysis was performed according to the standardized protocols of the Lipidomics Core Facility and data are expressed as VLCFA μg/ml levels. Hexacosanoic acid (C26:0) was selected as representative for VLCFAs.

[4] = ALD lymphocytes, increasing concentrations, FIG. 5

O=c1[nH]c2sc(Cl)c(-c3ccc4c(c3O)CCCC4)c2c([O-])c1-c1ccccc1.[K+] [PXL770, monohydrate potassium salt of 2-chloro-4-hydroxy-3-(5-hydroxytetralin-6-yl)-5-phenyl-7H-thieno[2,3-b]pyridin-6-one]
level of hexacosanoic acid ([1]; AMN lymphocytes, all doses tested (5, 10, 25, 50 μM), one week, FIG. 1): strongly decreases
level of hexacosanoic acid compared to healthy controls ([1]; AMN lymphocytes, doses of 5 and 50 μM, one week, FIG. 1): same level as that present in lymphocytes of healthy controls
VLCFA content, normalization ([1]; AMN patient cells, 5 μM): normalization effect
accumulation of hexacosanoic acid [2]: decreases
level of hexacosanoic acid [3, 4]: decreases
level of hexacosanoic acid compared to healthy controls [3, 4]: same level as that present in lymphocytes of healthy controls
VLCFA content, normalization ([3]; ALD patient cells, 5 μM): normalization effect
expression of ABCD2 (Western blot) (ABCD2): overexpression
VLCFA accumulation in the spinal cord (ABCD1-KO mice): significantly reduces
